Test results published in patent US20060263802A1 (priority 2003, published 2006).

Experiments:
Type in all cases: binding
[1] = system: human monoclonal antibody CRJB
[2] = system: human monoclonal antibody CR57
[3] = system: human monoclonal antibody CRJA
[4] = system: human monoclonal antibody CRJB; remark: listed apart in the source
[5] = system: human monoclonal antibody CR57; remark: listed apart in the source
[6] = system: human monoclonal antibody CRJA; remark: listed apart in the source

| Sequence | Binding of CRJB to linear peptide (PEPSCAN-ELISA signal) [1] | Binding of CR57 to linear peptide (PEPSCAN-ELISA signal) [2] | Binding of CRJA to linear peptide (PEPSCAN-ELISA signal) [3] | Binding of CRJB (10 μg/ml) to looped/cyclic peptide (PEPSCAN-ELISA signal) [4] | Binding of CR57 (10 μg/ml) to looped/cyclic peptide (PEPSCAN-ELISA signal) [5] | Binding of CRJA (10 μg/ml) to looped/cyclic peptide (PEPSCAN-ELISA signal) [6] | Binding of CRJB (10 μg/ml) to looped/cyclic peptide (PEPSCAN-ELISA) [4] | Binding of CR57 (10 μg/ml) to looped/cyclic peptide (PEPSCAN-ELISA) [5] | Binding of CRJA (10 μg/ml) to looped/cyclic peptide (PEPSCAN-ELISA) [6] | also measured |
| --- | --- | --- | --- | --- | --- | --- | --- | --- | --- | --- |
| IWMPENPRLGMSCDI | 110 | 98 | 87 | 156 | 329 | 152 |  |  |  | binding of antibody CR57 to looped/cyclic peptide (PEPSCAN OD) [5]: clearly bound |
| IYTILDKLGPWSPID | 97 | 44 | 83 | 58 | 66 | 78 |  |  |  |  |
| KAYTIFNKTLMEADA | 123 | 101 | 76 |  |  |  | 92 | 137 | 104 |  |
| KCSGVAVSSTYCSTN | 130 | 88 | 111 | 83 | 101 | 78 |  |  |  |  |
| KDGDEAEDFVEVHLP |  |  |  |  |  |  |  |  |  | Binding of human monoclonal antibody CRJB to linear peptide (PEPSCAN-ELISA signal) [1]: 93; Binding of human monoclonal antibody CR57 to linear peptide (PEPSCAN-ELISA signal) [2]: 72; Binding of human monoclonal antibody CRJA to linear peptide (PEPSCAN-ELISA signal) [3]: 62; Binding of CRJB to looped/cyclic peptide (PEPSCAN-ELISA signal) [4]: 71; Binding of CR57 to looped/cyclic peptide (PEPSCAN-ELISA signal) [5]: 71; Binding of CRJA to looped/cyclic peptide (PEPSCAN-ELISA signal) [6]: 42 |
| KESLVIISPSVADLD | 117 | 86 | 123 | 85 | 86 | 83 |  |  |  |  |
| KFPIYTILDKLGPWS | 97 | 71 | 65 | 64 | 72 | 43 |  |  |  |  |
| KGACKLKLCGVLGLR | 111 | 181 | 50 |  |  |  | 60 | 78 | 50 | binding of antibody CR57 to linear peptide (PEPSCAN OD) [2]: bound |
| KGCLRVGGRCHPHVN | 130 | 68 | 108 |  |  |  | 91 | 65 | 102 |  |
| KGSETCGFVDERGLY | 97 | 90 | 100 |  |  |  | 72 | 111 | 71 |  |
| KHFRPTPDACRAAYN | 112 | 73 | 85 | 72 | 70 | 41 |  |  |  |  |
| KLCGVLGLRLMDGTW | 132 | 3152 | 96 |  |  |  | 68 | 120 | 82 | binding of antibody CR57 to linear peptide (PEPSCAN OD) [2]: bound; strength of binding of CR57 (OD value compared with the other peptides / twice the average value) [2]: most prominent |
| KLGPWSPIDIHHLSC | 105 | 72 | 72 | 65 | 97 | 85 |  |  |  |  |
| KLKLCGVLGLRLMDG | 120 | 273 | 101 |  |  |  | 63 | 13 | 79 | binding of antibody CR57 to linear peptide (PEPSCAN OD) [2]: bound |
| KLVPGFGKAYTIFNK | 114 | 47 | 73 |  |  |  | 71 | 54 | 71 |  |
| KMAGDPRYEESLHNP | 102 | 62 | 48 | 45 | 49 | 38 |  |  |  |  |
| KMNGFTCTGVVTEAE | 104 | 76 | 90 | 71 | 77 | 83 |  |  |  |  |
| KRASKGSETCGFVDE | 106 | 92 | 97 |  |  |  | 85 | 120 | 101 |  |
| KREECLDALESIMTT | 113 | 102 | 83 |  |  |  | 64 | 137 | 100 |  |
| KRKHFRPTPDACRAA | 93 | 65 | 65 | 84 | 94 | 85 |  |  |  |  |
| KSLKGACKLKLCGVL | 113 | 129 | 91 |  |  |  | 97 | 106 | 113 |  |
| KSVRTWNEILPSKGC | 125 | 115 | 90 |  |  |  | 104 | 148 | 110 |  |
| KSVSFRRLSHLRKLV | 124 | 108 | 111 |  |  |  | 97 | 114 | 88 |  |
| KTLMEADAHYKSVRT | 98 | 91 | 102 |  |  |  | 97 | 125 | 92 |  |
| KTTKESLVIISPSVA | 112 | 101 | 82 | 75 | 111 | 104 |  |  |  |  |
| KVGYILAIKMNGFTC | 118 | 78 | 83 | 64 | 96 | 71 |  |  |  |  |
| KWCPPDQLVNLHDFR | 113 | 89 | 97 |  |  |  | 100 | 118 | 102 |  |
| LADPSTVFKDGDEAE |  |  |  |  |  |  |  |  |  | Binding of human monoclonal antibody CRJB to linear peptide (PEPSCAN-ELISA signal) [1]: 116; Binding of human monoclonal antibody CR57 to linear peptide (PEPSCAN-ELISA signal) [2]: 68; Binding of human monoclonal antibody CRJA to linear peptide (PEPSCAN-ELISA signal) [3]: 86; Binding of CRJB to looped/cyclic peptide (PEPSCAN-ELISA signal) [4]: 90; Binding of CR57 to looped/cyclic peptide (PEPSCAN-ELISA signal) [5]: 134; Binding of CRJA to looped/cyclic peptide (PEPSCAN-ELISA signal) [6]: 90 |
| LAIKMNGFTCTGVVT | 130 | 68 | 112 | 91 | 76 | 79 |  |  |  |  |
